The results in this text go back to patent publication US11089783B2, “2-(het)aryl-substituted fused heterocycle derivatives as pesticides” (Bayer Aktiengesellschaft, priority 2017, dated 2021).

What all share (type): in vivo
For one assay, the system named is Ctenocephalides felis. The assay is described as follows: Ctenocephalides felis oral test. The note with it: 100 ppm, after 2 days. On the procedure:
Solvent: dimethyl sulfoxide To produce a suitable active ingredient formulation, 10 mg of active ingredient are mixed with 0.5 ml of dimethyl sulfoxide. Dilution with citrated cattle blood gives the desired concentration. About 20 unfed adult cat fleas (Ctenocephalides felis) are placed into a chamber which is closed at the top and bottom with gauze. A metal cylinder whose bottom end is closed with parafilm is placed onto the chamber. The cylinder contains the blood/active ingredient formulation, which can be imbibed by the fleas through the parafilm membrane. After 2 days, the kill in % is determined. 100% means that all of the fleas have been killed; 0% means that none of the fleas have been killed.

The test system of another assay is Musca domestica. The assay is described as follows: Musca domestica test. The note with it: 100 ppm, adult houseflies, after 2 days. The method, then:
Solvent: dimethyl sulfoxide To produce a suitable active ingredient formulation, 10 mg of active ingredient are mixed with 0.5 ml of dimethyl sulfoxide, and the concentrate is diluted with water to the desired concentration. Vessels containing a sponge treated with sugar solution and the active ingredient formulation of the desired concentration are populated with 10 adult houseflies (Musca domestica). After 2 days, the kill in % is determined. 100% means that all of the flies have been killed; 0% means that none of the flies have been killed.

Assay [1] relates to Myzus persicae. The assay is described as follows: Myzus persicae spray test (MYZUPE), Chinese cabbage leaf discs. The note with it: Myzus persicae, foliar, 120 h; for Emax at 4 g/ha: MYZUPE, 5 dat, read-out: % efficacy. The essentials: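 Leaf discs of Chinese cabbage carrying all stages of green peach aphid were sprayed with compound formulated in solvent and diluted with water containing emulsifier at 1000 ppm. Percent efficacy (100% = all aphids dead) was scored after 5 days or after the desired time.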

In another assay the test system is Spodoptera frugiperda. The assay is described as follows: Spodoptera frugiperda spray test. The note with it: 100 g/ha, after 6 days. The method, then: [table] To produce a suitable active ingredient formulation, 1 part by weight of active ingredient is dissolved with the specified parts by weight of solvent and made up to the desired concentration with water containing an emulsifier concentration of 1000 ppm. To produce further test concentrations, the formulation is diluted with emulsifier-containing water. Leaf discs of maize (Zea mays) are sprayed with an active ingredient formulation of the desired concentration and, after drying, populated with caterpillars of the armyworm (Spodoptera frugiperda). After 6 days, the efficacy in % is determined. 100% means that all the caterpillars have been killed; 0% means that no caterpillar has been killed.

The test system of another assay is Tetranychus urticae. The assay is described as follows: Tetranychus urticae spray test, OP-resistant (TETRUR). The essentials: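 Bean leaf discs infested with all stages of OP-resistant Tetranychus urticae were sprayed with compound formulated in solvent and water containing 1000 ppm emulsifier. Efficacy was scored after 6 days as % mites killed (100% = all killed).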

For assay [2], the system named is Myzus persicae. The assay is described as follows: Myzus persicae spray test (MYZUPE S), bell pepper plants. The note with it: 144 h, 6 dat, read-out: % efficacy. The essentials: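 Infested bell pepper plants (Capsicum annuum) sprayed with active ingredient in emulsifier-containing water (1000 ppm emulsifier; ammonium salts/penetrants at 1000 ppm if required). Kill scored in % after the chosen time; 100% = all aphids dead, 0% = none.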

For the next assay, the system named is Aphis gossypii. Description: Aphis gossypii spray test (APHIGO), cotton plants. The conditions noted are these: Aphis gossypii, 144 h, 4 ppm, 6 dat, read-out: % efficacy. The essentials:
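Cotton plants (Gossypium hirsutum) heavily infested with cotton aphids were sprayed with the active ingredient formulated in emulsifier-containing water (1000 ppm emulsifier), with ammonium salt or penetrant added at 1000 ppm where required. After the set time, percent kill was determined, where 100% means all aphids dead.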

The subject of a further assay is Phaedon cochleariae. The assay is described as follows: Phaedon cochleariae spray test (PHAECO S), cabbage leaves. The conditions noted are these: Phaedon cochleariae, 168 h, 7 dat, read-out: % efficacy. The method, then:
[table] To produce an appropriate active ingredient formulation, 1 part by weight of active ingredient is dissolved with the specified parts by weight of solvent and made up with water containing an emulsifier concentration of 1000 ppm until the desired concentration is attained. To produce further test concentrations, the mixture is diluted with emulsifier-containing water. If addition of ammonium salts or/and penetrants is required, these are each added to the preparation solution in a concentration of 1000 ppm. Cabbage leaves (Brassica oleracea) are sprayed with an active ingredient formulation of the desired concentration and populated with larvae of the mustard beetle (Phaedon cochleariae). After the desired time, the kill in % is determined. 100% means that all beetle larvae have been killed; 0% means that no beetle larvae have been killed.

The mark [3] stands for this setting: 5 days (5 dat), read-out: efficacy.
The mark [4] stands for this setting: Tetranychus urticae, 144 h, TETRUR, 6 dat, read-out: % efficacy.

Turning to `CCNC(=O)Nc1ccc(S(=O)(=O)CC)c(-c2nc3cc(C(F)(F)C(F)(F)F)nnc3n2C)n1` [Example I-13], the “efficacy (kill)” value is on record as 100% with Ctenocephalides felis and 80% with Musca domestica. Besides, the pest or weed control at 20 g/ha in the assay with Myzus persicae [1] (setting [3]) was determined as 90%. The efficacy in the assay on Spodoptera frugiperda is 83%.

`CCS(=O)(=O)c1ccc(N(C)C(=O)NC)nc1-c1nc2cc(C(F)(F)C(F)(F)F)nnc2n1C` [Example I-09]: in the assay with Ctenocephalides felis, the “efficacy (kill)” value was 100%. Also, in the assay with Myzus persicae [1], the Emax at 4 g/ha was determined as 70%. Besides, the pest or weed control at 20 g/ha in the assay on Myzus persicae [1] (setting [3]) is 100%. Moreover, the Emax at 100 g/ha in the assay with Tetranychus urticae (setting [4]) was determined as 70%. In addition, the Emax at 0.16 ppm in the assay on Myzus persicae [2] (0.16 ppm) came to 80%. In the assay on Myzus persicae [2] (0.8 ppm), the Emax at 0.8 ppm was 100%.

For `CCS(=O)(=O)c1ccc(NC(=O)N(C)C)nc1-c1nc2cc(C(F)(F)C(F)(F)F)nnc2n1C` [Example I-10], the figures for the “efficacy (kill)” value in the assay with Ctenocephalides felis and in the assay with Musca domestica were 100% and 90%, respectively. For the same compound, in the assay with Myzus persicae [1], the Emax at 4 g/ha stood at 70%. The pest or weed control at 20 g/ha in the assay with Myzus persicae [1] (setting [3]) was found to be 100%. In addition, the Emax at 100 g/ha with Tetranychus urticae (setting [4]) was 70%. The Emax at 4 ppm in the assay with Aphis gossypii amounted to 75%. The Emax at 20 ppm in the assay with Phaedon cochleariae is 80%.

With `CCS(=O)(=O)c1ccc(NC(=O)NC)nc1-c1nc2cc(C(F)(F)C(F)(F)F)nnc2n1C` [Example I-08, 1-{5-(ethylsulfonyl)-6-[7-methyl-3-(pentafluoroethyl)-7H-imidazo[4,5-c]pyridazin-6-yl]pyridin-2-yl}-3-methylurea], the “efficacy (kill)” value with Ctenocephalides felis is 100%. The pest or weed control at 20 g/ha with Myzus persicae [1] (setting [3]) amounted to 100%. Further, in the assay with Myzus persicae [1] (100 g/ha, 5 days (5 dat), read-out: efficacy), the pest or weed control at 100 g/ha is 90%. The compound further showed an efficacy in the assay with Tetranychus urticae (4 g/ha, after 6 days) of 90%. Besides, the Emax at 20 g/ha in the assay with Tetranychus urticae (Tetranychus urticae, 144 h, TETRUR, 20 g/ha, 6 dat, read-out: % efficacy) is 70%. In addition, in the assay with Tetranychus urticae (setting [4]), the Emax at 100 g/ha was 70%. Moreover, the Emax at 4 ppm was determined as 95% in the assay with Aphis gossypii and 70% in the assay with Phaedon cochleariae (4 ppm). For the same compound, the Emax at 20 ppm with Phaedon cochleariae was determined as 90%.
